Source: PMC12186844 (ACS Chemical Neuroscience, 2025)
Where two headings read alike, the source gives them in different places.

What was measured:
D1Rs = conditions: earlier report, reference number not given; cited from earlier work
D2LR [1] = target: T1, D2LR (Homo sapiens, UniProt P14416); assay: inhibition of forskolin-stimulated cAMP production, BRET biosensor; assay type: cell-based;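 further: Flp-In-CHO cells stably expressing CAMYEL cAMP BRET sensor, agonist plus 10 µM forskolin, net BRET after forskolin-vehicle subtraction, parameters from complete operational model of allosterism and agonism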
T1 sequence (P14416 whole entry): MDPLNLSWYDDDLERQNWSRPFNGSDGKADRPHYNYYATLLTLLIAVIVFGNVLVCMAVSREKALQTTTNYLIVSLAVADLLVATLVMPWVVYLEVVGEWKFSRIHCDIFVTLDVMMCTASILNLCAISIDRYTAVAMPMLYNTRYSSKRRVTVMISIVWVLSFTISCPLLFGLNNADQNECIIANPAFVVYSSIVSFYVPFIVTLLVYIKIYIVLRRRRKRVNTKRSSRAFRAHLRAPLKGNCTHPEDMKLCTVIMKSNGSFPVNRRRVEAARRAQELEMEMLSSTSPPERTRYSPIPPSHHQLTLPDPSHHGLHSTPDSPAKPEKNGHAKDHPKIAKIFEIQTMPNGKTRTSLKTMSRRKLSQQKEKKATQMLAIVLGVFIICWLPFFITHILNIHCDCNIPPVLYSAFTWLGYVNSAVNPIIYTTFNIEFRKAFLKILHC
Method: Flp-In-CHO cells stably coexpressing the CAMYEL biosensor and DRs were plated into white 96-well CulturPlates (Revvity) and grown overnight. The cells were equilibrated in Hank’s balanced salt solution (HBSS) at 37 °C (or 25 °C when indicated) before starting the experiment. The cells were costimulated with the agonists and 10 μM forskolin for the indicated time frames when the BRET readings were captured. Coelenterazine (Nanolight Technology, AZ) was added at a final concentration of 5 μM at least 3 min prior to measurement. […] Net BRET was determined by subtraction of the vehicle control coadded with 10 μM forskolin.
Dose–response curves were fitted using the following three-parameter equation: response=bottom+top−bottom/1+10^(logEC50−log[A]) 5 where top and bottom represent the maximal and minimal asymptote of the dose response curve, [A] is the molar concentration of the agonist, and EC50 is the molar concentration of the agonist required to give a response half-way between bottom and top.

D2LR [2] = target: T1, D2LR; assay: whole cell [3H]raclopride binding assay
Method: The binding reaction was conducted in HBSS for 1 h at 37 °C. The adherent cells were washed two times with cold 0.9% NaCl solution, and 100 μL/well scintilation liquid was added to the plate. The remaining radioactivity was detected in a MicroBeta counter.

[3] = orthosteric agonist efficacy, operational model
[4] = orthosteric ligand, radioligand binding assay

Row | Structure (SMILES) | LogτA (D2LR [1]; [3]) | τA (D2LR [1]; [3]) | LogτA (D2LR [1]) | τA (D2LR [1]) | also measured
1 | CC1Cc2ccccc2N1C(=O)c1nc2ccccc2s1 (stereo not shown) [D2 PAM1, 1,3-benzothiazol-2-yl(2-methyl-2,3-dihydro-indol-1-yl)methanone] |  |  |  |  | activity at D1Rs (D1Rs): does not display activity
2 | CCCN1CCC[C@@H](c2cccc(O)c2)C1 [S-(3)-PPP, reference compound] | 0.33 ± 0.05 | 2.14 |  |  | 
3 | CN1CCc2cccc3c2[C@H]1Cc1ccc(O)c(O)c1-3 [apomorphine, reference compound] |  |  | 0.93 ± 0.02 | 8.5 | 
4 | CC(C)C[C@H]1C(=O)N2CCC[C@H]2[C@]2(O)O[C@](NC(=O)[C@@H]3C=C4c5cccc6[nH]c(Br)c(c56)C[C@H]4N(C)C3)(C(C)C)C(=O)N12 [bromocriptine, reference compound] |  |  | 0.66 ± 0.04 | 4.6 | Kd (D2LR [2]): 1.32 nM
5 | CCCN1C[C@H](CSC)C[C@@H]2c3cccc4[nH]cc(c34)C[C@H]21 [pergolide, reference compound] | 1.01 ± 0.03 | 10.2 |  |  | 
6 | CCCN[C@H]1CCc2nc(N)sc2C1 [pramipexole, reference compound] |  |  | 1.05 ± 0.04 | 11.2 | 
7 | CCCN(CCC)CCc1cccc2c1CC(=O)N2 [ropirinole, reference compound] | 1.14 ± 0.08 | 13.8 |  |  | KA (D2LR [2]; [4]): 1350 nM; pKA (D2LR [2]; [4]): 5.87 ± 0.18
8 | CCCN(CCc1cccs1)[C@H]1CCc2c(O)cccc2C1 [rotigotine, reference compound] |  |  | 1.17 ± 0.05 | 14.8 | Kd (D2LR [2]): 3.09 nM
